Source: patent US20050004079A1, “Pharmaceutical compositions for intranasal administration of [2-(8,9-dioxo-2,6-diazabicyclo[5.2.0]non-1(7)-en-2-yl)alkyl] phosphonic acid and derivatives and methods of use thereof” (Wyeth, priority 2003, published 2005)
Read-outs that look alike come from different tables or passages of the source.

Legend:
[1] = system: Prostaglandin E2-induced thermal hypersensitivity; experiment: In vivo efficacy in rats: Prostaglandin E2-induced thermal hypersensitivity (warm-water tail withdrawal); design: species or system Spraque-Dawley rats; conditions: for % MPE (reversal of PGE2-induced thermal hypersensitivity): rat, 30 min before PGE2
Method: Subjects: Individually housed Spraque-Dawley rats had free access to rat chow and water. A 12-h light/12-h dark cycle was in effect (lights on from 6:00 am to 6:00 pm). Animal maintenance and research were conducted in accordance with the guidelines provided by the National Institutes of Health Committee on Laboratory Animal Resources. These subjects were used in the tests below.
Procedure: The terminal 10 cm of the tail was placed into a thermos bottle containing water warmed to 38, 42, 46, 50 or 54° C. The latency in seconds for the animal to remove the tail from the water was used as a measure of nociception.
Following the assessment of baseline thermal sensitivity, thermal hypersensitivity was produced by a 50 μL injection of 0.1 mg prostaglandin E2 (PGE2) into the terminal 1 cm of the tail. Temperature-effect curves were generated before (baseline) and after (15, 30, 60, 90 and 120 min) the PGE2 injection.
The ability of compounds to reverse PGE2-induced thermal hypersensitivity was assessed using a single dose time-course procedure. Under this procedure, a single dose of the compound to be tested was administered intraperitoneally (IP), orally (PO) or intranasally (IN) 30 min before the injection of PGE2. […] sensitivity was assessed 30 min after PGE2 injection. For the IP and PO administration, compound was administered in a volume of 1 ml/kg with the dose administered calculated as mg/kg. For IN administration, rats were lightly anesthetized with 3.5% halothane in O2 and compound or vehicle was administered in a volume of 25 μL solution dropped into each nostril with the dose administered in absolute mg.
Data Analysis: The temperature that produced a half-maximal increase in the tail-withdrawal latency (i.e., T10) was calculated from each temperature-effect curve. The T10 was determined by interpolation from a line drawn between the point above and the point below 10 sec on the temperature-effect curve. For these studies, thermal hypersensitivity was defined as a leftward shift in the temperature-effect curve and a decrease in the T10 value. Reversal of thermal hypersensitivity was defined as a return to baseline of the temperature-effect curve and the T10 value and was calculated according to the following equation: [formula] in which T10^drug+PGE2 is the T10 after a drug in combination with PGE2, T10^PGE2 is the T10 after PGE2 alone, and T10^baseline is the T10 under control conditions. A % MPE value of 100 indicates a complete return to the baseline thermal sensitivity observed without the PGE2 injection.

[2] = monkey, in vivo, iv, 1.1 mg/kg
in vivo = conditions: monkey, po

AUC [2]: 1.67 ughr/ml
AUC (in vivo; 20 mg/kg): 1740 ng·h/mL
Cmax (in vivo; 20 mg/kg): 147 ng/mL
bioavailability (in vivo; 100 mg/kg): ~2.5%
SMILES: O=c1c2c(c1=O)N(CCP(=O)(O)O)CCCN2 [Compound A, [2-(8,9-dioxo-2,6-diazabicyclo[5.2.0]non-1(7)-en-2-yl)ethyl]phosphonic acid]
in vivo efficacy of intranasal and intraperitoneal administration compared with oral administration ([1]; rat PGE2-induced thermal hypersensitivity model, intranasal and intraperitoneal found similar): ten folds higher
% MPE (reversal of PGE2-induced thermal hypersensitivity) ([1]; IP, 1 mg/kg): −7%
% MPE (reversal of PGE2-induced thermal hypersensitivity) ([1]; IP, 3 mg/kg): 66%
% MPE (reversal of PGE2-induced thermal hypersensitivity) ([1]; IP, 10 mg/kg, 10 mg/kg): 79%
% MPE (reversal of PGE2-induced thermal hypersensitivity) ([1]; PO, 10 mg/kg): 5%
% MPE (reversal of PGE2-induced thermal hypersensitivity) ([1]; PO, 30 mg/kg): 23%
% MPE (reversal of PGE2-induced thermal hypersensitivity) ([1]; PO, 100 mg/kg, 100 mg/kg): 87%
